Data on one compound can be found in patent US20130209446A1, “Copy Number Variant-Dependent Genes As Diagnostic Tools, Predictive Biomarkers And Therapeutic Targets” (Board of Trustees of the University of Arkansas, priority 2010, published 2013).

Common to all, as to test: MTT cell proliferation assay, PU-H71 titration
What all share (format): cell-based
(Tetrazolium dyes change colour on reduction, which living cells bring about.)

The subject of one experiment is XG1. The note with it: Homo sapiens, XG1 myeloma cell line, 72 hours, without thrombin. The method, then: (§1) Cell growth inhibition of an anticancer agent (PU-H71) (6) was tested in a panel of myeloma cell lines. HMCLs were treated with a titration of the anti-cancer reagent PU-H71 (0 to 4,000 nM) in vitro for 72 hours. The MTT assay was utilized to detect proliferation of each cell line. The half maximal inhibitory concentration (IC50) of PU-H71 was calculated using OriginPro 7.5 statistic software.

Another experiment relates to JJN3. The settings on record: Homo sapiens, JJN-3, JJN3 myeloma cell line, 72 hours, without thrombin. On the procedure:
as §1

A further experiment deals with MM144. The settings on record: Homo sapiens, MM144 myeloma cell line, 72 hours, without thrombin. The method, then: as §1
In a further experiment the test system is ARK. The settings on record: Homo sapiens, ARK myeloma cell line, 72 hours, without thrombin. The method, then: as §1
For the next experiment, the system named is OPM2. The settings on record: Homo sapiens, OPM-2, OPM2 myeloma cell line, 72 hours, without thrombin. The method, then: as §1
The next experiment relates to INA6. The settings on record: Homo sapiens, INA-6, INA6 myeloma cell line, 72 hours, without thrombin. The method, then: as §1
A further experiment relates to OCI-MY5. The note with it: Homo sapiens, OCI-MY5 myeloma cell line, 72 hours, without thrombin. On the procedure: as §1
The next experiment concerns L363. The settings on record: Homo sapiens, L-363, L363 myeloma cell line, 72 hours, without thrombin. On the procedure:
as §1

Another experiment relates to RPMI8226. The settings on record: Homo sapiens, RPMI-8226, RPMI8226 myeloma cell line, 72 hours, without thrombin. On the procedure:
as §1

Another experiment deals with KMS28PE. The note with it: Homo sapiens, KMS-28PE, KMS28PE myeloma cell line, 72 hours, without thrombin. On the procedure:
as §1

The test system of another experiment is U266. The note with it: Homo sapiens, U-266, U266 myeloma cell line, 72 hours, without thrombin. On the procedure: as §1
Another experiment deals with KMS28BM. The note with it: Homo sapiens, KMS-28BM, KMS28BM myeloma cell line, 72 hours, without thrombin. On the procedure:
as §1

The subject of the next experiment is H929. The note with it: Homo sapiens, NCI-H929, H929 myeloma cell line, 72 hours, without thrombin. On the procedure: as §1

For `CC(C)NCCCn1c(Sc2cc3c(cc2I)OCO3)nc2c(N)ncnc21` [PU-H71], the IC50 (in general, the concentration that gives 50% inhibition) in the experiment with XG1 is 0.238 µM; with JJN3 it was 0.8 µM; in the experiment on MM144, 0.306 µM; in the experiment on ARK, 0.339 µM; with OPM2, 0.415 µM; with INA6, 0.141 µM. The IC50 with OCI-MY5 came out at 0.164 µM; in the experiment on L363 it was 0.232 µM; in the experiment with RPMI8226 it was 0.485 µM; in the experiment with KMS28PE it was 0.344 µM; in the experiment on U266 it was 0.198 µM; with KMS28BM it was 0.164 µM. Also, in the experiment on H929, the IC50 came to 0.21 µM.
